Laboratory results taken from patent US11840686B2, “Modulation of prekallikrein (PKK) expression” (Ionis Pharmaceuticals, Inc., priority 2013, dated 2023).
Where “and” joins values, the source holds several entries; their conditions need not be identical. Identical values can stand only once. Strand notation (5' to 3'): a small letter for the sugar, then the base; units joined by * are phosphorothioate-linked, units joined directly phosphodiester-linked; [ ] holds rarer units or linkages, { } end groups; capitals alone tell only the bases. e = 2'-O-(2-methoxyethyl) (MOE); [5mC] = 5-methylcytosine; d = 2'-deoxy (DNA)

Assays:
[1] = test system: human PKK mRNA; experiment: Antisense inhibition of human PKK mRNA in HepaRG cells, 5,000 nM (Example 2); type: cell-based
In short: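 HepaRG cells (20,000/well) electroporated with 5,000 nM MOE gapmer (phosphorothioate backbone, 5-methylcytosines) and harvested after ~24 h. PKK mRNA measured by qRT-PCR with primer probe set RTS3454, normalized to RIBOGREEN total RNA; percent inhibition versus untreated cells.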

[2] = test system: human PKK mRNA; experiment: Dose-dependent antisense inhibition of human PKK in HepaRG cells, 0.19-5.00 uM (Example 5); type: cell-based
In short: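 HepaRG cells (20,000/well) were electroporated with antisense oligonucleotide at 0.19, 0.56, 1.67 and 5.00 μM and treated for about 16 hours. PKK mRNA was quantified by qRT-PCR with primer probe set RTS3454, normalised to RIBOGREEN total RNA, and IC50 was derived per oligonucleotide.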

[3] = test system: basal vascular permeability; experiment: Dose-dependent effect on basal vascular permeability, Evans Blue OD600 (Example 14); type: in vivo, mouse; settings: for OD600 nm of Evans Blue dye, Colon / OD600 nm of Evans Blue dye, Ears / OD600 nm of Evans Blue dye, Feet: basal, 3 weeks
Experimental: The effect of varying doses on ISIS 482584 on basal vascular permeability was evaluated.
Group 1 consisted of 8 mice and was treated with PBS administered subcutaneously twice a week for 3 weeks. No other treatment was administered to Group 1 which served as a control group to measure the basal levels of vascular permeability.
Group 2 consisted of 4 mice and was treated with PBS administered subcutaneously twice a week for 3 weeks. At the end of the treatment period, the mice were intraperitoneally administered 30 μg of HOE-140. Group 2 served as a positive control for inhibition of basal vascular permeability.
Groups 3, 4, 5, 6, 7, and 8 consisted of 8 mice each and were treated with 2.5 mg/kg, 5 mg/kg, 10 mg/kg, 20 mg/kg, 40 mg/kg, or 80 mg/kg (corresponding to 5 mg/kg, 10 mg/kg, 20 mg/kg, 40 mg/kg, 80 mg/kg, or 160 mg/kg per week), respectively of ISIS 482584 administered subcutaneously twice a week for 3 weeks. […] served as the experimental treatment groups for examining the effect of varying doses of ISIS 482584 on basal vascular permeability.
All the groups were then injected with 30 mg/kg of Evans Blue solution in the tail vein. The mice were sacrificed 30 min after the Evans Blue solution administration and colons, feet, and ears were harvested and examined for permeability defects. Blood samples were taken through cardiac puncture.
The harvested tissues from the feet, colon, and ears were placed in formamide solution overnight to leach out the Evans Blue dye. The formamide solution containing feet and ear tissue was heated to 55° C. and left overnight. Higher OD values are associated with higher levels of permeability.

[4] = HepaRG cells, electroporation, approximately 16 hours, Table 35
[5] = HepaRG cells, electroporation, approximately 16 hours, Table 36
[6] = HepaRG cells, electroporation, approximately 16 hours, Table 37
[7] = HepaRG cells, electroporation, approximately 16 hours, Table 38
[8] = HepaRG cells, electroporation, approximately 16 hours, Table 39
[9] = HepaRG cells, electroporation, approximately 16 hours, Table 40
[10] = Table 34, HepaRG, electroporation, ~16 h

Substance: 531231 (eT*eA*eT*e[5mC]*eA*d[5mC]*dT*dG*dT*dA*d[5mC]*dT*dA*dG*dT*eT*eT*e[5mC]*e[5mC]*eT) [compound 531231]
- % inhibition ([1]; HepaRG cells, 5,000 nM antisense oligonucleotide, human PKK mRNA, Table 18): 90%
- % inhibition ([1]; HepaRG cells, 5,000 nM antisense oligonucleotide, 5-10-5 gapmers, Table 16): 93%
- % inhibition ([1]; HepaRG cells, 5,000 nM antisense oligonucleotide, 5-10-5 gapmers, Table 17): 91%
- % inhibition ([1]; HepaRG cells, electroporation with 5,000 nM antisense oligonucleotide, approximately 24 hours, PKK mRNA by RT-PCR (RTS3454), relative to untreated control cells, Table 5 experiment): 98%
- % inhibition ([1]; HepaRG cells, electroporation with 5,000 nM antisense oligonucleotide, approximately 24 hours, PKK mRNA by RT-PCR (RTS3454), relative to untreated control cells, Table 6 experiment): 86%
- % inhibition ([1]; HepaRG cells, electroporation, 5,000 nM antisense oligonucleotide, approx. 24 hours, primer probe set RTS3454, relative to untreated control cells, Table 11): 90%
- % inhibition ([1]; HepaRG cells, electroporation, 5,000 nM antisense oligonucleotide, approx. 24 hours, primer probe set RTS3454, relative to untreated control cells, Table 12): 90%
- % inhibition ([1]; Table 7, HepaRG cells, electroporation with 5,000 nM antisense oligonucleotide, approx. 24 hours, PKK mRNA by RT-PCR (RTS3454), relative to untreated control cells): 88%
- % inhibition ([1]; Table 8, HepaRG cells, electroporation with 5,000 nM antisense oligonucleotide, approx. 24 hours, PKK mRNA by RT-PCR (RTS3454), relative to untreated control cells): 95%
- % inhibition ([1]; Table 9 experiment, HepaRG cells, 20,000 cells per well, electroporation with 5,000 nM antisense oligonucleotide, approx. 24 hours, PKK mRNA by RT-PCR (RTS3454), relative to untreated control cells): 96%
- % inhibition ([1]; Table 10 experiment, HepaRG cells, 20,000 cells per well, electroporation with 5,000 nM antisense oligonucleotide, approx. 24 hours, PKK mRNA by RT-PCR (RTS3454), relative to untreated control cells): 72%
- % inhibition ([1]; Table 13, human PKK mRNA in HepaRG cells, 5-10-5 gapmers): 85%
- % inhibition ([1]; human PKK mRNA in HepaRG cells, 5-10-5 gapmers, Table 14): 85%
- % inhibition ([1]; human PKK mRNA, HepaRG cells, 5-10-5 motif oligonucleotides targeting SEQ ID NO: 1 and 10): 93%
- percent inhibition of PKK at 0.19 μM [2, 4]: 25%
- percent inhibition of PKK at 0.19 μM [2, 5]: 58%
- percent inhibition of PKK at 0.19 μM [2, 6]: 34%
- percent inhibition of PKK at 0.19 μM [2, 7]: 21%
- percent inhibition of PKK at 0.19 μM [2, 8]: 21%
- percent inhibition of PKK at 0.19 μM [2, 9]: 6%
- percent inhibition of PKK at 0.56 μM [2, 4]: 34%
- percent inhibition of PKK at 0.56 μM [2, 5]: 64%
- percent inhibition of PKK at 0.56 μM [2, 6]: 47%
- percent inhibition of PKK at 0.56 μM [2, 7]: 45%
- percent inhibition of PKK at 0.56 μM [2, 8]: 39%
- percent inhibition of PKK at 0.56 μM [2, 9]: 38%
- percent inhibition of PKK at 1.67 μM [2, 4]: 84%
- percent inhibition of PKK at 1.67 μM [2, 5]: 77%
- percent inhibition of PKK at 1.67 μM [2, 6]: 72%
- percent inhibition of PKK at 1.67 μM [2, 7]: 67%
- percent inhibition of PKK at 1.67 μM [2, 8]: 90%
- percent inhibition of PKK at 1.67 μM [2, 9]: 74%
- percent inhibition of PKK at 5.00 μM [2, 4]: 92%
- percent inhibition of PKK at 5.00 μM [2, 5]: 98%
- percent inhibition of PKK at 5.00 μM [2, 7]: 96%
- percent inhibition of PKK at 5.00 μM [2, 8]: 97%
- percent inhibition of PKK at 5.00 μM [2, 9]: 95%
- percent inhibition of PKK at 5.00 μM ([2]; HepaRG cells, electroporation, approximately 16 hours, Table 41): 97%
- percent inhibition of PKK at 0.19 0μM ([2]; 0.19 0μM, HepaRG cells, electroporation, approximately 16 hours, Table 41): 25%
- percent inhibition of PKK at 0.56 0μM ([2]; 0.56 0μM, HepaRG cells, electroporation, approximately 16 hours, Table 41): 55%
- percent inhibition of PKK at 1.67 1μM ([2]; 1.67 1μM, HepaRG cells, electroporation, approximately 16 hours, Table 41): 89%
- IC50 ([2]; 4 point dose response, HepaRG cells, Table 35): 700 nM
- IC50 ([2]; 4 point dose response, HepaRG cells, Table 37): 500 nM
- IC50 ([2]; 4 point dose response, HepaRG cells, Table 38): 700 nM
- IC50 ([2]; 4 point dose response, HepaRG cells, Table 39): 600 nM
- IC50 ([2]; 4 point dose response, HepaRG cells, Table 40): 800 nM
- IC50 ([2]; 4 point dose response, HepaRG cells, Table 41): 500 nM
- percent inhibition of PKK mRNA, 0.19 μM ([2]; HepaRG cells, 0.19 μM antisense oligonucleotide): 7% and 6%
- percent inhibition of PKK mRNA, 0.56 μM ([2]; HepaRG cells, 0.56 μM antisense oligonucleotide): 39% and 56%
- percent inhibition of PKK mRNA, 1.67 μM ([2]; HepaRG cells, 1.67 μM antisense oligonucleotide): 56% and 68%
- percent inhibition of PKK mRNA, 5.00 μM ([2]; HepaRG cells, 5.00 μM antisense oligonucleotide): 97%
- IC50 ([2]; HepaRG cells, 0.19-5.00 μM): 1000 nM and 800 nM
- percent inhibition of PKK at 0.19 μM [2, 10]: 32%
- percent inhibition of PKK at 0.56 μM [2, 10]: 30%
- percent inhibition of PKK at 1.67 μM [2, 10]: 73%
- percent inhibition of PKK at 5.00 μM [2, 10]: 89%
- IC50 ([2]; Table 34, PKK mRNA, HepaRG, electroporation, ~16 h): 500 nM

Substance: ISIS 482584: 5-10-5 MOE gapmer targeting murine PKK, GGCATATTGGTTTTTGGAAT; SEQ ID NO: 2244 (antisense eG*eG*e[5mC]*eA*eT*dA*dT*dT*dG*dG*dT*dT*dT*dT*dT*eG*eG*eA*eA*eT)
- basal vascular permeability ([3]; all doses (Groups 3-8), most of the tissues, vs PBS control): reduced basal vascular permeability
- OD600 nm of Evans Blue dye, Colon ([3]; 5 mg/kg/week sc): 0.32
- OD600 nm of Evans Blue dye, Ears ([3]; 5 mg/kg/week sc): 0.009
- OD600 nm of Evans Blue dye, Feet ([3]; 5 mg/kg/week sc): 0.11
- OD600 nm of Evans Blue dye, Colon ([3]; 10 mg/kg/week sc): 0.31
- OD600 nm of Evans Blue dye, Ears ([3]; 10 mg/kg/week sc): 0.015
- OD600 nm of Evans Blue dye, Feet ([3]; 10 mg/kg/week sc): 0.10
- OD600 nm of Evans Blue dye, Colon ([3]; 20 mg/kg/week sc): 0.26
- OD600 nm of Evans Blue dye, Ears ([3]; 20 mg/kg/week sc): 0.009
- OD600 nm of Evans Blue dye, Feet ([3]; 20 mg/kg/week sc): 0.11
- OD600 nm of Evans Blue dye, Colon ([3]; 40 mg/kg/week sc): 0.27
- OD600 nm of Evans Blue dye, Ears ([3]; 40 mg/kg/week sc): 0.011
- OD600 nm of Evans Blue dye, Feet ([3]; 40 mg/kg/week sc): 0.11
- OD600 nm of Evans Blue dye, Colon ([3]; 80 mg/kg/week sc): 0.24
- OD600 nm of Evans Blue dye, Ears ([3]; 80 mg/kg/week sc): 0.014
- OD600 nm of Evans Blue dye, Feet ([3]; 80 mg/kg/week sc): 0.09
- OD600 nm of Evans Blue dye, Colon ([3]; 160 mg/kg/week sc): 0.25
- OD600 nm of Evans Blue dye, Ears ([3]; 160 mg/kg/week sc): 0.019
- OD600 nm of Evans Blue dye, Feet ([3]; 160 mg/kg/week sc): 0.11

Substance: Tes Ges mCes Aes Aes Gds Tds mCds Tds mCds Tds Tds Gds Gds mCds Aes Aes Aes mCes Ae [ISIS 546254]
- inhibition of human PKK mRNA ([1]; HepaRG cells, 5,000 nM, electroporation, 24 hours): 95%
- IC50 ([2]; 4 point dose response curve (0.19-5.0 μM), HepaRG cells, electroporation): 200 nM and 300 nM
